The experiment relates to Anti-Thy-1 antibody nephritis rats. The experiment can be described thus: Pharmacological effect: total protein content in urine. Type of experiment: in vivo, rat. Particulars: administered once i.v. on the fifth day after anti-Thy-1 antibody, urine collected on the tenth day. The procedure: Anti-Thy-1 antibody nephritis rats were prepared by intravenously administering an anti-Thy-1 antibody solution through the caudal vein of each CD (SD) male rat. On the fifth day after administration of the anti-Thy-1 antibody, the liposome dispersion liquid obtained in Preparation Example 15 (1 mg as prednisolone phosphate sodium) was administered by intravenous injection. On the tenth day after administration of the anti-Thy-1 antibody, urine was collected to measure the total protein content.
For the sake of comparison, the preparation of Comparative Example 1 (a liposome dispersion liquid having no included drug) or physiological saline was administered by the same method, and urine was collected on the tenth day after administration of the anti-Thy-1 antibody to measure the total protein content.
Also, a prednisolone phosphate sodium solution (1 mg as prednisolone phosphate sodium) which was not made into liposomes was administered once on the fifth day after administration of the anti-Thy-1 antibody, or five times (once a day for 5 days) started on the fifth day after administration of the anti-Thy-1 antibody, and urine was collected on the tenth day after administration of the anti-Thy-1 antibody to measure the total protein content.
Urine was also collected from un-treated normal rat to measure the total protein content.

One substance from US6562371B1, “Liposomes” (Terumo Kabushiki Kaisha, priority 1998, dated 2003) can be followed below.

Regarding prednisolone phosphate sodium, the “effect on excretion of protein into urine (total protein content)” value is reported as “no effect was found”.
